Tested on: NCI-H211 complex spheroid viability
Assay: Anticancer human tumor NCI-H211 cell line growth inhibition [LSD1];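 further: luminescent viability read after seven days of drug exposure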;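 on viability, T/C: 100% = DMSO vehicle control viability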
Conditions: for IC50: curve of first compound; for viability, T/C: stronger effect = lower value
Summary of the method: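 Multicellular complex spheroids of tumor cells with human endothelial cells (HUVEC) and mesenchymal stem cells; the LSD1 inhibitor iadademstat was combined with standard-of-care or investigational agents. Top concentration at or near clinical Cmax, half-log dilutions; final DMSO ≤0.25%.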

[1] = second compound 0.1 µM, first compound 0.0316 µM
[2] = second compound 0.1 µM, first compound 0.1 µM
[3] = second compound 0.316 µM, first compound 0.0316 µM
[4] = second compound 0.316 µM, first compound 0.1 µM
[5] = second compound 1 µM, first compound 0.0316 µM
[6] = second compound 1 µM, first compound 0.1 µM
[7] = second compound 3.16 µM, first compound 0.0316 µM
[8] = second compound 3.16 µM, first compound 0.1 µM
[9] = second compound 10 µM, first compound 0.0316 µM
[10] = second compound 10 µM, first compound 0.1 µM
[11] = second compound 0.1 µM, first compound 0.000949 µM
[12] = second compound 0.1 µM, first compound 0.003 µM
[13] = second compound 0.1 µM, first compound 0.00949 µM
[14] = second compound 0.1 µM, first compound 0.03 µM
[15] = second compound 0.1 µM, first compound 0.0949 µM
[16] = second compound 0.1 µM, first compound 0.3 µM
[17] = second compound 0.316 µM, first compound 0.000949 µM
[18] = second compound 0.316 µM, first compound 0.003 µM
[19] = second compound 0.316 µM, first compound 0.00949 µM
[20] = second compound 0.316 µM, first compound 0.03 µM
[21] = second compound 0.316 µM, first compound 0.0949 µM
[22] = second compound 0.316 µM, first compound 0.3 µM
[23] = second compound 1 µM, first compound 0.000949 µM
[24] = second compound 1 µM, first compound 0.003 µM
[25] = second compound 1 µM, first compound 0.00949 µM
[26] = second compound 1 µM, first compound 0.03 µM
[27] = second compound 1 µM, first compound 0.0949 µM
[28] = second compound 1 µM, first compound 0.3 µM
[29] = second compound 3.16 µM, first compound 0.000949 µM
[30] = second compound 3.16 µM, first compound 0.003 µM
[31] = second compound 3.16 µM, first compound 0.00949 µM
[32] = second compound 3.16 µM, first compound 0.03 µM
[33] = second compound 3.16 µM, first compound 0.0949 µM
[34] = second compound 3.16 µM, first compound 0.3 µM
[35] = second compound 10 µM, first compound 0.000949 µM
[36] = second compound 10 µM, first compound 0.003 µM
[37] = second compound 10 µM, first compound 0.00949 µM
[38] = second compound 10 µM, first compound 0.03 µM
[39] = second compound 10 µM, first compound 0.0949 µM
[40] = second compound 10 µM, first compound 0.3 µM

## CC[C@@]1(O)C(=O)OCc2c1cc1n(c2=O)Cc2cc3c(CN(C)C)c(O)ccc3nc2-1 + NC1CCC(NC2CC2c2ccccc2)CC1
Second compound 0.1 µM
  IC50: 0.337 nM
Second compound 0.316 µM
  IC50: 0.355 nM
Second compound 1 µM
  IC50: 0.329 nM
Second compound 3.16 µM
  IC50: < 0.316 nM
Second compound 10 µM
  IC50: < 0.316 nM
Second compound 0.1 µM, first compound 0.000316 µM
  viability, T/C: 52.3%
Second compound 0.1 µM, first compound 0.001 µM
  viability, T/C: 11.6%
Second compound 0.1 µM, first compound 0.00316 µM
  viability, T/C: 2.63%
Second compound 0.1 µM, first compound 0.01 µM
  viability, T/C: 7.01%
[1]
  viability, T/C: 1.98%
[2]
  viability, T/C: 1.11%
Second compound 0.316 µM, first compound 0.000316 µM
  viability, T/C: 54.4%
Second compound 0.316 µM, first compound 0.001 µM
  viability, T/C: 11.1%
Second compound 0.316 µM, first compound 0.00316 µM
  viability, T/C: 1.88%
Second compound 0.316 µM, first compound 0.01 µM
  viability, T/C: 2.29%
[3]
  viability, T/C: 2.33%
[4]
  viability, T/C: 1.04%
Second compound 1 µM, first compound 0.000316 µM
  viability, T/C: 51.4%
Second compound 1 µM, first compound 0.001 µM
  viability, T/C: 10.3%
Second compound 1 µM, first compound 0.00316 µM
  viability, T/C: 3.14%
Second compound 1 µM, first compound 0.01 µM
  viability, T/C: 2.71%
[5]
  viability, T/C: 7%
[6]
  viability, T/C: 1.06%
Second compound 3.16 µM, first compound 0.000316 µM
  viability, T/C: 49%
Second compound 3.16 µM, first compound 0.001 µM
  viability, T/C: 9.4%
Second compound 3.16 µM, first compound 0.00316 µM
  viability, T/C: 2.42%
Second compound 3.16 µM, first compound 0.01 µM
  viability, T/C: 1.93%
[7]
  viability, T/C: 1.88%
[8]
  viability, T/C: 1.01%
Second compound 10 µM, first compound 0.000316 µM
  viability, T/C: 28.7%
Second compound 10 µM, first compound 0.001 µM
  viability, T/C: 6.59%
Second compound 10 µM, first compound 0.00316 µM
  viability, T/C: 1.13%
Second compound 10 µM, first compound 0.01 µM
  viability, T/C: 1.34%
[9]
  viability, T/C: 0.81%
[10]
  viability, T/C: 0.51%

## CCc1c2c(nc3ccc(O)cc13)-c1cc3c(c(=O)n1C2)COC(=O)[C@]3(O)CC + NC1CCC(NC2CC2c2ccccc2)CC1
Second compound 0.1 µM
  IC50: < 0.949 nM
Second compound 0.316 µM
  IC50: < 0.949 nM
Second compound 1 µM
  IC50: < 0.949 nM
Second compound 3.16 µM
  IC50: < 0.949 nM
Second compound 10 µM
  IC50: < 0.949 nM
[11]
  viability, T/C: 1.98%
[12]
  viability, T/C: 3.23%
[13]
  viability, T/C: 0.6%
[14]
  viability, T/C: 0.92%
[15]
  viability, T/C: 0.04%
[16]
  viability, T/C: 0.14%
[17]
  viability, T/C: 1.86%
[18]
  viability, T/C: 0.71%
[19]
  viability, T/C: 0.57%
[20]
  viability, T/C: 0.69%
[21]
  viability, T/C: 0.03%
[22]
  viability, T/C: 0.27%
[23]
  viability, T/C: 2.45%
[24]
  viability, T/C: 1.08%
[25]
  viability, T/C: 0.51%
[26]
  viability, T/C: 0.73%
[27]
  viability, T/C: 0.06%
[28]
  viability, T/C: 0.61%
[29]
  viability, T/C: 0.94%
[30]
  viability, T/C: 0.56%
[31]
  viability, T/C: 0.41%
[32]
  viability, T/C: 0.58%
[33]
  viability, T/C: 0.5%
[34]
  viability, T/C: 0.13%
[35]
  viability, T/C: 0.65%
[36]
  viability, T/C: 0.19%
[37]
  viability, T/C: 0.2%
[38]
  viability, T/C: 0.27%
[39]
  viability, T/C: 0.13%
[40]
  viability, T/C: 0.19%

## Nc1ccccc1NC(=O)c1ccc(CNC(=O)OCc2cccnc2)cc1 + NC1CCC(NC2CC2c2ccccc2)CC1
Second compound 0.1 µM
  IC50: 11.9 nM
Second compound 0.316 µM
  IC50: 13.2 nM
Second compound 1 µM
  IC50: 9.95 nM
Second compound 3.16 µM
  IC50: < 9.49 nM
Second compound 10 µM
  IC50: < 9.49 nM
[13]
  viability, T/C: 54.5%
[14]
  viability, T/C: 32.1%
[15]
  viability, T/C: 4.58%
[16]
  viability, T/C: 1.24%
Second compound 0.1 µM, first compound 0.949 µM
  viability, T/C: 0.63%
Second compound 0.1 µM, first compound 3 µM
  viability, T/C: 0.12%
[19]
  viability, T/C: 55.7%
[20]
  viability, T/C: 35.9%
[21]
  viability, T/C: 4.66%
[22]
  viability, T/C: 1.07%
Second compound 0.316 µM, first compound 0.949 µM
  viability, T/C: 0.8%
Second compound 0.316 µM, first compound 3 µM
  viability, T/C: 0.15%
[25]
  viability, T/C: 51%
[26]
  viability, T/C: 27.2%
[27]
  viability, T/C: 3.65%
[28]
  viability, T/C: 0.99%
Second compound 1 µM, first compound 0.949 µM
  viability, T/C: 0.68%
Second compound 1 µM, first compound 3 µM
  viability, T/C: 0.11%
[31]
  viability, T/C: 38%
[32]
  viability, T/C: 20.3%
[33]
  viability, T/C: 3.37%
[34]
  viability, T/C: 0.53%
Second compound 3.16 µM, first compound 0.949 µM
  viability, T/C: 0.39%
Second compound 3.16 µM, first compound 3 µM
  viability, T/C: 0.12%
[37]
  viability, T/C: 29.4%
[38]
  viability, T/C: 6.92%
[39]
  viability, T/C: 1%
[40]
  viability, T/C: 0.3%
Second compound 10 µM, first compound 0.949 µM
  viability, T/C: 0.22%
Second compound 10 µM, first compound 3 µM
  viability, T/C: 5.88%

## Nc1ccn(C2OC(CO)C(O)C2(F)F)c(=O)n1 (stereo not given) + NC1CCC(NC2CC2c2ccccc2)CC1
Second compound 0.1 µM
  IC50: < 0.949 nM
Second compound 0.316 µM
  IC50: < 0.949 nM
Second compound 1 µM
  IC50: < 0.949 nM
Second compound 3.16 µM
  IC50: < 0.949 nM
Second compound 10 µM
  IC50: < 0.949 nM
[11]
  viability, T/C: 2.51%
[12]
  viability, T/C: 2.16%
[13]
  viability, T/C: 2.36%
[14]
  viability, T/C: 1.86%
[15]
  viability, T/C: 2.26%
[16]
  viability, T/C: 2.41%
[17]
  viability, T/C: 2.59%
[18]
  viability, T/C: 2.18%
[19]
  viability, T/C: 2.35%
[20]
  viability, T/C: 2.12%
[21]
  viability, T/C: 2.8%
[22]
  viability, T/C: 2.37%
[23]
  viability, T/C: 2.5%
[24]
  viability, T/C: 1.98%
[25]
  viability, T/C: 2.28%
[26]
  viability, T/C: 2.01%
[27]
  viability, T/C: 2.14%
[28]
  viability, T/C: 2.46%
[29]
  viability, T/C: 2.06%
[30]
  viability, T/C: 3.05%
[31]
  viability, T/C: 2.05%
[32]
  viability, T/C: 1.95%
[33]
  viability, T/C: 2.15%
[34]
  viability, T/C: 2.13%
[35]
  viability, T/C: 1.03%
[36]
  viability, T/C: 0.96%
[37]
  viability, T/C: 1.05%
[38]
  viability, T/C: 0.79%
[39]
  viability, T/C: 0.64%
[40]
  viability, T/C: 1.61%

## O=C(c1cc(Cc2n[nH]c(=O)c3ccccc23)ccc1F)N1CCN(C(=O)C2CC2)CC1 + NC1CCC(NC2CC2c2ccccc2)CC1
Second compound 0.1 µM
  IC50: < 31.6 nM
Second compound 0.316 µM
  IC50: < 31.6 nM
Second compound 1 µM
  IC50: < 31.6 nM
Second compound 3.16 µM
  IC50: < 31.6 nM
Second compound 10 µM
  IC50: < 31.6 nM
[1]
  viability, T/C: 41.8%
[2]
  viability, T/C: 26.4%
Second compound 0.1 µM, first compound 0.316 µM
  viability, T/C: 6.09%
Second compound 0.1 µM, first compound 1 µM
  viability, T/C: 2.71%
Second compound 0.1 µM, first compound 3.16 µM
  viability, T/C: 2.42%
Second compound 0.1 µM, first compound 10 µM
  viability, T/C: 2.07%
[3]
  viability, T/C: 44.4%
[4]
  viability, T/C: 27.7%
Second compound 0.316 µM, first compound 0.316 µM
  viability, T/C: 6.03%
Second compound 0.316 µM, first compound 1 µM
  viability, T/C: 2.23%
Second compound 0.316 µM, first compound 3.16 µM
  viability, T/C: 2.6%
Second compound 0.316 µM, first compound 10 µM
  viability, T/C: 2.2%
[5]
  viability, T/C: 41.1%
[6]
  viability, T/C: 27.1%
Second compound 1 µM, first compound 0.316 µM
  viability, T/C: 5.68%
Second compound 1 µM, first compound 1 µM
  viability, T/C: 2.69%
Second compound 1 µM, first compound 3.16 µM
  viability, T/C: 3.18%
Second compound 1 µM, first compound 10 µM
  viability, T/C: 2.72%
[7]
  viability, T/C: 35.5%
[8]
  viability, T/C: 21.8%
Second compound 3.16 µM, first compound 0.316 µM
  viability, T/C: 4.95%
Second compound 3.16 µM, first compound 1 µM
  viability, T/C: 1.97%
Second compound 3.16 µM, first compound 3.16 µM
  viability, T/C: 2.43%
Second compound 3.16 µM, first compound 10 µM
  viability, T/C: 2.46%
[9]
  viability, T/C: 18.2%
[10]
  viability, T/C: 11.2%
Second compound 10 µM, first compound 0.316 µM
  viability, T/C: 1.78%
Second compound 10 µM, first compound 1 µM
  viability, T/C: 1.3%
Second compound 10 µM, first compound 3.16 µM
  viability, T/C: 1.25%
Second compound 10 µM, first compound 10 µM
  viability, T/C: 1.37%

Reference: PubChem BioAssay AID1918940 (Molecular Pharmacology Branch, DTP, NCI, 2023)
